Measurements as given in patent publication US20250345275A1, “Micromolar Halogenated Fluorescein Assists in Full Skin-Thickness Wound Healing” (priority 2024, published 2025).
Values joined by “and” are separate entries in the source; they are usually repeats but may differ in a detail not shown here. Identical values can stand only once. “Also recorded” adds a separate entry of the source.

Tests used:
[1] = Body weight, survival, adverse events and organ examination in mice with full-thickness wounds; format: in vivo, BALB/c mice; conditions: for loss of body weight: 3 and 7 days post-injury (FIG. 1A)
Procedure: Animals: The Institutional Animal Care and Use Committee of the University of Texas Medical Branch in Galveston (UTMB) approved all protocols and studies were conducted in accordance with animal welfare regulations. Healthy 7-week-old male BALB/c mice (N=58) (strain 028, Charles River Laboratories, Houston, Texas, USA) 18-22 g were socially housed in temperature-and light-controlled facilities at UTMB with free access to food and water. Animals were acclimatized for one week before surgical procedures.
(§1) A Balb/C mice excision model was used with a cutaneous full-thickness injury made by a 6-mm diameter punch biopsy. The mice were 7-weeks old and 52 animals were used in the studies discussed herein.
(§2) Animals were administered the RB-containing PF-127-containing hydrogel every other day. A total of three animal treatment groups were studied along with two control groups. one group received vehicle plus light treatment, whereas the other group received vehicle without light. One treatment group of mice received 0.1% RB-containing hydrogel with irradiation for 30 minutes using monochromatic green light (MGL), λ=532 nm at a distance of 2.5 cm that provided […] and a dose of 35J/cm^2. A second treatment group also received 0.1% RB-containing hydrogel, but without MGL irradiation. The third treatment group received 0.01% RB-containing hydrogel without MGL irradiation.
(§3) Primary outcomes assessed safety through analysis of full complete blood count (CBC), comprehensive blood chemistry, body and organ weight. Secondary outcomes analyzed wound closure, epidermal water loss, erythema, and comprehensive wound histology.
(§4) In the primary outcome and measures and observations, the treated animals and a control group received a full CBC and comprehensive blood chemistry panel, as well as observations of body weight food consumption, and organ appearance. Secondarily, wound closure, epidermal water loss erythema and wound histology were examined.
(§5) to determine the effects of rose bengal on blood parameters, blood samples were collected at euthanasia through cardiac puncture and were analyzed for complete blood count using an Abaxis VETSCAN® HM5 Hematology Analyzer Allied Analytic, LLC., Tampa, FL. The blood components analyzed included: white blood cells [WBC], lymphocytes [LYMPH], monocytes [MONO], neutrophils [NEUT], red blood cells [RBC], hemoglobin [HGB], hematocrit [HCT], mean corpuscle volume [MCV], mean corpuscle hemoglobin [MCH], mean corpuscle hemoglobin concentration [MCHC], platelets [PLT], and mean platelet volume [MPV]. Blood chemistry was also analyzed using an Abaxis VETSCAN® VS2 Chemistry Analyzer—Diagnostics to determine liver and Pancreas function through Albumin [ALB], Alkaline phosphatase [ALP], Alanine aminotransferase [ALT], Total bilirubin [tBIL], Total protein [TPRT], Globulin [GLOB], and Amylase [AMY]. Glucose & electrolyte levels were determined by measuring Glucose [GLU], Calcium [CA], Phosphorus [PHOS], Sodium [NA], and Potassium [K]. Kidney Function was assessed through Creatinine [CRE] and Blood urea nitrogen [BUN] levels.

[2] = Complete blood count and blood chemistry panel; format: in vivo, BALB/c mice
Description: as §3, §4, §5

[3] = system: full-thickness cutaneous wounds; experiment: Transepidermal water loss (TEWL) over the wound, DermaLab Combo; format: in vivo, BALB/c mice; conditions: 0.01% RBS, no irradiation; for TEWL relative to usual (pre-injury) range: day 14 post-injury (FIG. 2B); for TEWL compared with vehicle alone: day 14 post-injury, p<0.0001 (FIG. 2B)
Procedure: (§6) Animals were placed under general anesthesia and a 10-mm diameter TEWL probe was placed directly over each wound ensuring uniform coverage and forming a seal immediately around the wound. Following environmental normalization to ambient temperature and relative humidity, TWEL was calculated at […]. A minimum of three TWEL measurements were obtained for each full-thickness wound and uninjured skin area. A color sensitive 7-mm diameter probe, insensitive to ambient light, was then placed over each wound to measure erythema; four measures were obtained for each wound. All wound erythema calculations were normalized to uninjured skin and reported as an index value over time.
as §6, with “At each time point prior to euthanasia, transepidermal water loss (TEWL) and wound erythema indices were measured using the validated DermaLab combo system (CortexTechnologies, Hadsund, Denmark). Animals” for “Animals”, “TEWL” for “TWEL”

[4] = system: full-thickness cutaneous wounds; experiment: Wound erythema index, DermaLab Combo; format: in vivo, BALB/c mice
Procedure: as §6
as §6, with “At each time point prior to euthanasia, transepidermal water loss (TEWL) and wound erythema indices were measured using the validated DermaLab combo system (CortexTechnologies, Hadsund, Denmark). Animals” for “Animals”, “TEWL” for “TWEL”

[5] = system: full-thickness cutaneous wounds; experiment: Wound closure by planimetry of digital images; format: in vivo, BALB/c mice; conditions: for wound closure compared with vehicle alone: 0.01% RB, no irradiation, day 3 post-injury (FIG. 4)
Procedure: as §1, §2
Before surgery, animals received buprenorphine (0.1 mg kg^−1) for pre-procedural analgesia, and inhaled isoflurane (0.2-1.0%) was continuously administered throughout the procedure. The dorsum of the animal was shaved, a depilatory cream was applied to completely remove all dorsal hair, and the area was scrubbed with betadine antiseptic. The animal was laid in the right lateral decubitus position and using forceps, the dorsal skin was stretched, and a 6-mm punch biopsy was used to create bilateral full-thickness cutaneous wounds. Next, a 0.5 mm-thick silicone ring was sutured in place through the panniculus carnosus around each wound to ensure wounds healed primarily through re-epithelialization.
Animals were then randomized into treatment groups as follows: (1) Saline control in the dark, (2) Saline control with MGL irradiation, (3) Hydrogel vehicle in the dark, (4) Hydrogel vehicle with MGL irradiation, (5) RB in the dark, and (6) RB with MGL irradiation. Treatment was applied directly to the wound bed (800 uL per wound) and spread using a sterile surgical spatula to ensure even and uniform thickness over the wound.
Animals were then placed in a separate light-sealed and heated enclosure in a sternal position to expose dorsal wounds and remained under general isoflurane anesthesia. All other exposed portions of the body were then covered with sterile wrap to expose only the wounds. […] Animals were euthanized at 3-, 7-, and 14-days post-injury when wound healing parameters were assessed.
After initial surgery and at each study time point post-injury, color digital images were obtained for each wound. […] Wound planimetry was calculated using ImageJ software (ver. 1.53) by tracing wound edges yielding a surface area in […]. Wound closure was calculated as follows: […]

[6] = system: full-thickness cutaneous wounds; experiment: Tissue ROS generation in full-thickness injury; format: in vivo, Balb/c mice; conditions: RB phototherapy
Description: Following functional and planimetric measurements, animals were euthanized and the dorsal skin, inclusive down to underlying facia and dorsal musculature, was excised; care was employed to not disrupt any open wound post-mortem and maintain tissue integrity. The left-side wound and surrounding uninjured skin was directly transferred into a flat position histology cassette and the right-side wound was immediately snap-frozen in liquid nitrogen for reactive oxygen species and molecular analyses. Histology cassettes were then immersed in 10% neutral buffer formalin for 72 hours and subsequently placed in 70% ethanol thereafter. Uninjured skin tissue for each animal was also collected and preserved for future analyses.
Data are presented as mean±SD with n=3-6 animals per group

[7] = Tolerated bolus dose on intravasation after intratumoral PV-10; format: in vivo; conditions: equivalent of the 1500 mg bolus
Procedure: The wounds were treated with an aqueous pharmaceutical composition prepared using a PV-10®-based rose bengal formulation. PV-10® is a sterile, non-pyrogenic 10% solution of disodium RB in 0.9% saline for injection. Using PV-10®, as its RB source, RB has been tolerated at a bolus dose of 1500 mg upon intravasation when delivered intratumorally; this equates to an exposure of approximately 300 mg/L in the bloodstream (300 μM RB).

[8] = PV-10 as RB source, delivered intratumorally; cited from earlier work
[9] = non-medical grade rose bengal, photoactivation with 550 nm MGL; cited from earlier work
[10] = system: full-thickness cutaneous wounds; experiment: Number of blood vessels in the wound area (smooth muscle actin staining); format: in vivo, BALB/c mice; conditions: 0.01% RBS in vehicle, p<0.05 (FIG. 6); group not clearly stated
[11] = 0.01% RB every other day without photoactivation
[12] = 0.1% RB every other day with or without photoactivation
[13] = 0.1% RB every other day with or without photoactivation, out to 7 days
[14] = 0.01% RBS, no irradiation, day 7 post-injury, p<0.0001 (FIG. 3B)
[15] = 0.01% RBS, no irradiation, day 14 post-injury

O=C1OC2(c3cc(I)c(O)c(I)c3Oc3c2cc(I)c(O)c3I)c2c(Cl)c(Cl)c(Cl)c(Cl)c21 [RB, 4,5,6,7-tetrachloro-2′, 4′, 5′, 7′-tetraiodo-fluorescein]
adverse events [1, 11]: no adverse events noted
survival through time course ([1]; 0.01% RB every other day without photoactivation, n=33): All animals survived
Mean body mass ([1]; 0.01% RB every other day without photoactivation, throughout treatment): maintained
body weight ([1]; 0.01% RB, no irradiation, day 14 post-injury (between day 7 and 14)): slight weight gains; also recorded: gained weight; also recorded: slight increase
adverse events [1, 12]: no adverse events noted
survival through time course ([1]; 0.1% RB every other day with or without photoactivation, n=19): All animals survived
mean body mass loss [1, 13]: ~5%
body weight ([1]; 0.1% RB with and without irradiation, first seven days post-injury): lost weight
Body weight and gross examination of internal organs ([1]; at euthanasia): did not show any signs of toxicity
loss in body or organ weight ([1]; either treatment regimen (single or multidose)): No loss
toxicity / safety for wound healing applications ([1]; single (photoactivated) and multidose (ambient light, covered) topical application to full-thickness wounds): did not illicit toxicity
body weight ([1]; vehicle containing 0.01% RB, no irradiation, days 3 and 7 post-injury (FIG. 1B)): constant weights; also recorded: maintained their weights
other chemistries [2, 11]: within normal ranges
Erythrocytes and platelets size, morphology, count ([2]; 0.01% RB every other day without photoactivation, out to 14 days): normal
Leukocyte count ([2]; 0.01% RB every other day without photoactivation, out to 14 days post-injury/treatment): normal
mean amylase ([2]; 0.01% RB every other day without photoactivation, all groups): Elevated
other chemistries [2, 12]: within normal ranges
Erythrocytes and platelets size, morphology, count [2, 13]: normal
Leukocyte count ([2]; 0.1% RB every other day with or without photoactivation, out to 7 days post-injury): normal
mean amylase ([2]; 0.1% RB every other day with or without photoactivation, all treated groups): Elevated
TEWL relative to usual (pre-injury) range [3]: about at the normal level
TEWL compared with vehicle alone [3]: significantly reduced
erythema index compared with vehicle alone [4, 14]: significantly increased
erythema, day 3 versus day 7 ([4]; 0.1% RB, days 3 and 7 post injury (FIG. 3A)): about the same
wound closure compared with vehicle alone [5]: accelerates wound closure
wound closure compared with saline- or vehicle-treated wounds ([5]; RB with or without MGL irradiation, 3 and 7 days after injury): significantly closes full-thickness wounds faster
wound closure compared with every other treatment group ([5]; photoactivated RB, 14 days post-injury, p<0.05): significantly increased wound closure
tissue ROS ([6]; 3 days post-injury, versus all other treatments): significantly increased tissue ROS
tissue ROS ([6]; day 14): abates to nominal levels
tissue ROS ([6]; throughout 7 days, versus all other treatments): sustained
exposure in the bloodstream [7]: approximately 300 mg/L and 300 μM
tolerated bolus dose upon intravasation [8]: 1500 mg
wound closure [9]: accelerates wound closure
wound healing [9]: improves wound healing

O=C([O-])c1c(Cl)c(Cl)c(Cl)c(Cl)c1-c1c2cc(I)c(=O)c(I)c-2oc2c(I)c([O-])c(I)cc12.[Na+].[Na+] [RBS, rose bengal disodium]
loss of body weight ([1]; 0.1% RBS with irradiation (MGL)): approximately 5%
loss of body weight ([1]; 0.1% RBS without irradiation): approximately 5%
TEWL relative to usual (pre-injury) range [3]: back at their usual range
TEWL compared with vehicle alone [3]: statistically significant difference
erythema index compared with vehicle alone [4, 14]: statistically significant difference
erythema index compared with vehicle alone [4, 15]: not statistically different
erythema index relative to usual values [4, 15]: very similar to the usual erythema index values
wound closure compared with vehicle alone [5]: statistically significantly less
number of blood vessels, day 7 versus day 3 post-injury [10]: statistically greater
